Among the data in patent US9452990B2, “Complement pathway modulators and uses thereof” (NOVARTIS AG, priority 2012, dated 2016) are IC50 values, retold here.

pIC50: −log10 of the molar value. Where a name gives a salt, the structure may show the parent alone.

Usually pIC50 stands for −log10 of the IC50, conventionally taken in molar units.

For one assay, the target named is human complement factor B (CVF-Bb complex) (Homo sapiens (Human), UniProt P00751). As to the kind of experiment: Human Complement Factor B ELISA Assay.
Settings: not given
The class given is biochemical. The gist of the method:
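Preformed CVF-Bb complex (3 nM; cobra venom factor with recombinant human factors B and D) preincubated with compound 1 h, RT, in PBS pH 7.4, 10 mM MgCl2, 0.05% CHAPS. Plasma C3 added at 1 μM final for 1 h, then stopped; C3a product measured by ELISA, IC50 from % inhibition.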
In general terms: ELISA stands for enzyme-linked immunosorbent assay.
`COc1cc2c(N)nc(N3CCN(C(=O)C[C@@H](N)Cc4ccncc4)C[C@@H]3C)nc2c(F)c1OC` [Example 63, (S)-3-Amino-1-[(S)-4-(4-amino-8-fluoro-6,7-dimethoxy-quinazolin-2-yl)-3-methyl-piperazin-1-yl]-4-pyridin-4-yl-butan-1-one hydrochloride] gave a pIC50 of 5.14.

On to `CCC[C@H]1CN(C(=O)C[C@@H](N)c2ccc(C(F)(F)F)cc2)CCN1c1nc(N)c2cc(OC)c(OC)c(F)c2n1` [Example 68, (R)-3-Amino-1-[(S)-4-(4-amino-8-fluoro-6,7-dimethoxy-quinazolin-2-yl)-3-propyl-piperazin-1-yl]-3-(4-trifluoromethyl-phenyl)-propan-1-one hydrochloride], for which the pIC50 was 7.22.

As for `CC[C@H]1CN(C(=O)C[C@@H](N)c2ccc(C#N)cc2)CCN1c1nc(N)c2cc(OC)c(OC)c(F)c2n1` [Example 64, 4-{(R)-1-Amino-3-[(S)-4-(4-amino-8-fluoro-6,7-dimethoxy-quinazolin-2-yl)-3-ethyl-piperazin-1-yl]-3-oxo-propyl}-benzonitrile hydrochloride], the pIC50 is 8.15.

Staying with this assay, now noted: CVF-Bb complex 3 nM, 1 hour preincubation with compound at room temperature, human C3 substrate 1 μM, C3a quantified by ELISA; read-out: Factor B IC50.
As for `COc1cc2c(N)nc(N3CCN(C(=O)C[C@@H](N)c4ccccc4)CC3)nc2c(Br)c1OC` [Example 81, (R)-3-amino-1-(4-(4-Amino-8-bromo-6,7-dimethoxyquinazolin-2-yl)piperazin-1-yl)-3-phenylpropan-1-one], the pIC50 was 6.29.

Turning to `COc1cc2c(N)nc(N3CCN(C(=O)C[C@@H](C(N)=O)c4ccc(F)cc4)CC3)nc2c(F)c1OC` [Example 130, (R)-4-[4-(4-Amino-8-fluoro-6,7-dimethoxy-quinazolin-2-yl)-piperazin-1-yl]-2-(4-fluoro-phenyl)-4-oxo-butyramide], the pIC50 was 8.00.

As to `COc1cc2c(N)nc(N3CCN(C(=O)[C@@H]4CCc5ccccc5[C@@H]4N)CC3)nc2c(F)c1OC` [Example 104, [4-(4-Amino-8-fluoro-6,7-dimethoxy-quinazolin-2-yl)-piperazin-1-yl]-((1R,2R)-1-amino-1,2,3,4-tetrahydro-naphthalen-2-yl)-methanone], the pIC50 is 6.12.

Turning to `CC[C@H]1CN(C(=O)/C=C/c2ccc(C#N)cc2)CCN1c1nc(N)c2cc(OC)c(OC)c(F)c2n1` [Example 8, 4-{(E)-3-[(S)-4-(4-Amino-8-fluoro-6,7-dimethoxy-quinazolin-2-yl)-3-ethyl-piperazin-1-yl]-3-oxo-propenyl}-benzonitrile], the pIC50 was 7.96.

As to `CN[C@H](CC(=O)N1CCN(c2nc(N)c3cc(OC)c(OC)c(F)c3n2)CC1)c1ccccc1` [Example 72, (R)-1-[4-(4-Amino-8-fluoro-6,7-dimethoxy-quinazolin-2-yl)-piperazin-1-yl]-3-methylamino-3-phenyl-propan-1-one], the negative-log IC50 (pIC50) is 6.64.

`COc1cc2c(N)nc(N3CCN(C(=O)C[C@@H](N)c4cccc(C#N)c4)CC3)nc2c(F)c1OC` [Example 43, 3-{(R)-1-Amino-3-[4-(4-amino-8-fluoro-6,7-dimethoxy-quinazolin-2-yl)-piperazin-1-yl]-3-oxo-propyl}-benzonitrile]: the pIC50 was 7.40.
